The term IC50 denotes the point on the concentration scale where inhibition reaches its midpoint. What is called Ki is the dissociation constant of the complex between target and ligand, obtained from inhibition or displacement. Read a low Ki as tighter binding. The inhibition is the percentage by which the read-out fell short of the control.

Assay [1] addresses T1, Acetylcholinesterase (Torpedo californica, UniProt P04058). Kind of assay: Inhibition of Torpedo californica AChE using acetylthiocholine iodide as substrate preincubated for 10 mins followed by substrate addition measured for 5 mins by Ellman's method. The class given is single protein, Tetronarce californica. A general note: DTNB colorimetry detects thiols as they appear.

Assay [2] deals with T2, Cholinesterase (Equus caballus, UniProt P81908). Kind of assay: Inhibition of equine serum BChE using butyrylthiocholine iodide as substrate preincubated for 10 mins followed by substrate addition measured for 5 mins by Ellman's method.
T2 sequence (P81908 whole entry): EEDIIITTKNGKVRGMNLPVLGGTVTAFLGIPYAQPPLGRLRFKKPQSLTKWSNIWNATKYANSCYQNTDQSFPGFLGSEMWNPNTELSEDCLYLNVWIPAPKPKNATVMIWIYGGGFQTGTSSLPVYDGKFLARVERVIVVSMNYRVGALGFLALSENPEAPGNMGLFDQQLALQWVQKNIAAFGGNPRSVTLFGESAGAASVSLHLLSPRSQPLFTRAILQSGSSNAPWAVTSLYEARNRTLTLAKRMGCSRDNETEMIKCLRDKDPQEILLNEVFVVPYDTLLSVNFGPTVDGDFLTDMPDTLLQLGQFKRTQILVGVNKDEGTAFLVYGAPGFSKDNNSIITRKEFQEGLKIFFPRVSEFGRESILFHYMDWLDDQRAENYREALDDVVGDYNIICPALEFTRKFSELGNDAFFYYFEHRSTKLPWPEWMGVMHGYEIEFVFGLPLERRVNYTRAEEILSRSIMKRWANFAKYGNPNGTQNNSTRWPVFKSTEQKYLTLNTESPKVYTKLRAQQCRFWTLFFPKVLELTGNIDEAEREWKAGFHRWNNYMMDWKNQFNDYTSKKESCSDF
The nature of assay [3]: Selectivity index, ratio of IC50 for Torpedo californica AChE to IC50 for equine serum BChE.
Assay [4] deals with T3, Acetylcholinesterase (Electrophorus electricus, UniProt O42275). Kind of assay: Inhibition of electric eel AChE using acetylthiocholine iodide as substrate preincubated for 10 mins followed by substrate addition measured for 6 mins by Ellman's method.
T3 sequence (O42275 whole entry): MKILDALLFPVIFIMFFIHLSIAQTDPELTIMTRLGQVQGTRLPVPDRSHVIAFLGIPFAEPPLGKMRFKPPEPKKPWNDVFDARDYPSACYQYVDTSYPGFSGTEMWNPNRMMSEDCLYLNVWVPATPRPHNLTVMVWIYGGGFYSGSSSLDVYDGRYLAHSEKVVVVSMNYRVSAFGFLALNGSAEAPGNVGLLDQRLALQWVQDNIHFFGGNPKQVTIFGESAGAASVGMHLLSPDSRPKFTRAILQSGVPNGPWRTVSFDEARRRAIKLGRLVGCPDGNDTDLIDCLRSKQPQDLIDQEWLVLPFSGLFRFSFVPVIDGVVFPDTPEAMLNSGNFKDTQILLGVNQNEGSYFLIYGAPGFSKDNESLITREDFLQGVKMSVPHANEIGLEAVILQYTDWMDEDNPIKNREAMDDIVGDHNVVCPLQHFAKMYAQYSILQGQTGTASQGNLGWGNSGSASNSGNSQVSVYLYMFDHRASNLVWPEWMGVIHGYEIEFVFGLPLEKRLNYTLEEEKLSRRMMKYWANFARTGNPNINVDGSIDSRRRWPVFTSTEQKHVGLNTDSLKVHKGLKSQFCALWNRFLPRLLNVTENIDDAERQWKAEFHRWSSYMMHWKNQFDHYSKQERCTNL
Assay [5] concerns the target T2, Cholinesterase. The experiment in a line: Inhibition of equine serum BChE using butyrylthiocholine iodide as substrate preincubated for 10 mins followed by substrate addition measured for 6 mins by Ellman's method.
A short description of assay [6]: Selectivity index, ratio of IC50 for electric eel AChE to IC50 for equine serum BChE.
Assay [7] addresses T3, Acetylcholinesterase. Kind of assay: Inhibition of electric eel AChE using acetylthiocholine iodide as substrate preincubated for 15 mins followed by substrate addition measured after 15 mins by Ellman's method.
The target in assay [8] is T2, Cholinesterase. Kind of assay: Inhibition of equine serum BChE using butyrylthiocholine iodide as substrate preincubated for 15 mins followed by substrate addition measured after 15 mins by Ellman's method.
Assay [9] deals with T1, Acetylcholinesterase. Kind of assay: Inhibition of Torpedo californica AChE using acetylthiocholine iodide as substrate preincubated for 15 mins followed by substrate addition by Ellman's method. Further details: species or system Tetronarce californica.
In assay [10] the target is T2, Cholinesterase. Kind of assay: Inhibition of equine serum BChE using butyrylthiocholine iodide as substrate preincubated for 15 mins followed by substrate addition by Ellman's method.
The target in assay [11] is Cholinesterase (Equus caballus) (UniProt P81908). Kind of assay: Potency index, ratio of donepezil IC50 to test compound IC50 for equine serum BChE.
Sequence of Cholinesterase (Equus caballus) (P81908 whole entry): as the sequence (P81908 whole entry) above
Assay [12] deals with T2, Cholinesterase. Kind of assay: Mixed-type inhibition of equine serum BChE using varying levels of butyrylthiocholine iodide as substrate by Lineweaver-burk plot analysis.
Another assay concerns PC-12. The experiment in a line: Neuroprotective activity against H2O2-induced cell death in rat PC12 cells assessed as cell viability at 10 uM pretreated for 3 hrs followed by H2O2 addition and measured after 12 hrs by MTT assay relative to control. The class given is functional. The conditions noted are these: read-out: Activity. For orientation: Tetrazolium dyes change colour on reduction, which living cells bring about.

Assay [13] deals with Beta-secretase 1 (Homo sapiens) (UniProt P56817). Kind of assay: Inhibition of recombinant human BACE1 (1 to 460 residues) expressed in baculovirus-infected insect cells at 50 uM using Rh-EVNLDAEFK-quencher as substrate measured after 90 mins by fluorescence assay relative to control.
Sequence of Beta-secretase 1 (Homo sapiens) (P56817 whole entry, the tested form may be a part): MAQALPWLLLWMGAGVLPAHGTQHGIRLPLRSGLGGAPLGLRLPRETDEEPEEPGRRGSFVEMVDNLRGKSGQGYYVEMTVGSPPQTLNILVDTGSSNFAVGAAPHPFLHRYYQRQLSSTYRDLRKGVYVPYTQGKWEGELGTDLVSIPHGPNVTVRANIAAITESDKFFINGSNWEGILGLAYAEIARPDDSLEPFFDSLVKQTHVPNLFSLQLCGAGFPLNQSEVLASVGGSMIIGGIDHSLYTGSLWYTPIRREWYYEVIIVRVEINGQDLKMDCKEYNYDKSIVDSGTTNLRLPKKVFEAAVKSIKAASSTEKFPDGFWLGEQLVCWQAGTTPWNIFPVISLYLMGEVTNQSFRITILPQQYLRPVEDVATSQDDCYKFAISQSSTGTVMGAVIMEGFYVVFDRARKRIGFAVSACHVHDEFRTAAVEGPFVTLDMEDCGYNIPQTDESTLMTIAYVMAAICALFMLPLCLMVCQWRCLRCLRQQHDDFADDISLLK
For assay [14] the target is unchanged. The experiment in a line: Inhibition of recombinant human BACE1 (1 to 460 residues) expressed in baculovirus-infected insect cells at 10 uM using Rh-EVNLDAEFK-quencher as substrate measured after 90 mins by fluorescence assay relative to control.
For assay [15], the target named is Amyloid-beta precursor protein (Homo sapiens) (UniProt P05067). The experiment in a line: Inhibition of HFIP-pretreated amyloid beta (1 to 42) (unknown origin) self-induced aggregation at 10 uM after 48 hrs by thioflavin-T fluorescence assay relative to control.
Sequence of Amyloid-beta precursor protein (Homo sapiens) (P05067 whole entry): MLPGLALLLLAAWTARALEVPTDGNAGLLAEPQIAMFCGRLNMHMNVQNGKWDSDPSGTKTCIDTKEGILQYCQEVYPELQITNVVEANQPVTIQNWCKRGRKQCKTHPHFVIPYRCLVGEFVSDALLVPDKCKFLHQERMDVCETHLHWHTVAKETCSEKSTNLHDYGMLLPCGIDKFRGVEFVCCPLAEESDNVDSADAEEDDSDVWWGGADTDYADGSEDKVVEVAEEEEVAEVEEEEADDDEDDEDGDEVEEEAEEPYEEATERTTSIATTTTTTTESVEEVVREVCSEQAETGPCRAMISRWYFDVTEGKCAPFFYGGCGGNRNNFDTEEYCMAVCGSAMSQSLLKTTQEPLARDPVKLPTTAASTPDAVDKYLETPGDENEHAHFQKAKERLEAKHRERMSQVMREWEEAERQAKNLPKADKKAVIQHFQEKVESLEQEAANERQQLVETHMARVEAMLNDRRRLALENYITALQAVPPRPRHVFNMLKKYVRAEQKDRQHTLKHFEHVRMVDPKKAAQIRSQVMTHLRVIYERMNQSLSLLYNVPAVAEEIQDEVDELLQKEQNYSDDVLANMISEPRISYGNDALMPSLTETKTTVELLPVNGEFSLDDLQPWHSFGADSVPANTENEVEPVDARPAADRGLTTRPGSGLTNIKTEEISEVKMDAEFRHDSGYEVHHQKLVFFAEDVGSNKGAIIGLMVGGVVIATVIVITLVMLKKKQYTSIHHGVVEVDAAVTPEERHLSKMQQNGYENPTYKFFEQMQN
The target of assay [16] is Cholinesterase (Homo sapiens) (UniProt P06276). Kind of assay: Inhibition of human BchE (unknown origin)-induced amyloid beta (1 to 42) aggregation at 10 uM after 48 hrs by thioflavin T fluorescence method relative to control.
Sequence of Cholinesterase (Homo sapiens) (P06276 whole entry): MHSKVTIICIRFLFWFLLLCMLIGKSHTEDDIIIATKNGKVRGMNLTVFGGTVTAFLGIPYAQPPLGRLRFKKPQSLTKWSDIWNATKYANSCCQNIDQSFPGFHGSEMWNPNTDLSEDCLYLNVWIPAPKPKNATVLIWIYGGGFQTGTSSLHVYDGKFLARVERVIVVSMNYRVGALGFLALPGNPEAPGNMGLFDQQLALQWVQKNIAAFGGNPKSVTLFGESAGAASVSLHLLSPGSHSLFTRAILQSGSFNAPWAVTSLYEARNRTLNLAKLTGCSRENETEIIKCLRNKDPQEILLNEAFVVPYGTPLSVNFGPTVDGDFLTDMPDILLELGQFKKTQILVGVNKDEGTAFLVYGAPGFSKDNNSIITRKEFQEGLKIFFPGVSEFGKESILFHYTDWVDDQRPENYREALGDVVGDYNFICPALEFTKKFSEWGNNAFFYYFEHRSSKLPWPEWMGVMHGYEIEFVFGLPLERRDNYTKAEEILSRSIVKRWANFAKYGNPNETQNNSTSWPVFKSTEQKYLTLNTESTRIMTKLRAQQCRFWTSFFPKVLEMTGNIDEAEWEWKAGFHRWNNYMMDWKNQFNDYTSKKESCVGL

T1 sequence (P04058 whole entry): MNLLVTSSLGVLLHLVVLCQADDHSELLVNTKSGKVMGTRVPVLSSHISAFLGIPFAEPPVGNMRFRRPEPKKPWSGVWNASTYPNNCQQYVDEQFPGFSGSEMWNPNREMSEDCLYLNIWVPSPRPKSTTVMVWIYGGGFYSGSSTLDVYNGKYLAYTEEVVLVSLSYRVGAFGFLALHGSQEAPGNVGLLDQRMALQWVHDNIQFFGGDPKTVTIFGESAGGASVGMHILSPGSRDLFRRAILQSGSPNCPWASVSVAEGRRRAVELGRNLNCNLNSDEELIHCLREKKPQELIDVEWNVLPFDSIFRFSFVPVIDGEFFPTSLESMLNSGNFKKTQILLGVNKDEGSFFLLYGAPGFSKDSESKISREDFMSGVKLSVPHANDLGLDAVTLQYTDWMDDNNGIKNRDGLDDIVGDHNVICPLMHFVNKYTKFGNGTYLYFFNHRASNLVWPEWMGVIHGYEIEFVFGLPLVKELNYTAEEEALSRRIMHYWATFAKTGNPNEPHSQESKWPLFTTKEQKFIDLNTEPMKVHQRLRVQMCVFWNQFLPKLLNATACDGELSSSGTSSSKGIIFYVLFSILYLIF

Take `Clc1ccc(C[n+]2cccc(Cn3c4c(c5ccccc53)CCCC4)c2)cc1`: the IC50 against Acetylcholinesterase [1] turned out to be 27.3 µM; against Cholinesterase [2], 0.22 µM. Moreover, the Ratio IC50 in assay [3] amounted to 124.

Turning to `Fc1cccc(C[n+]2ccc(Cn3c4c(c5ccccc53)CCCC4)cc2)c1`, the IC50 is 34.3 µM on Acetylcholinesterase [1] and 0.98 µM at Cholinesterase [2]. For the same compound, the Ratio IC50 in assay [3] amounted to 35.

On to `Clc1ccc(C[n+]2ccc(Cn3c4c(c5ccccc53)CCCC4)cc2)cc1`, for which the IC50 stood at 25.6 µM at Acetylcholinesterase [1] and 2.1 µM at Cholinesterase [2]. Further, in [3], the Ratio IC50 stood at 12.2.

`Clc1cccc(C[n+]2cccc(Cn3c4c(c5ccccc53)CCCC4)c2)c1`: the figures for the IC50 against Acetylcholinesterase [1] and against Cholinesterase [2] were 30 µM and 0.25 µM, respectively. In addition, in assay [3], the Ratio IC50 turned out to be 120.

For the compound `Fc1ccccc1C[n+]1ccc(Cn2c3c(c4ccccc42)CCCC3)cc1`, the results for the IC50 at Acetylcholinesterase [1] and at Cholinesterase [2] were 30 µM and 0.63 µM, respectively. Besides, the Ratio IC50 in assay [3] came out at 47.6.

As for `c1ccc(C[n+]2ccc(Cn3c4c(c5ccccc53)CCCC4)cc2)cc1`, the IC50 was 30 µM on Acetylcholinesterase [1] and 0.48 µM against Cholinesterase [2]. Also, the Ratio IC50 in assay [3] is 62.6.

As to `c1ccc(C[n+]2cccc(Cn3c4c(c5ccccc53)CCCC4)c2)cc1`, the half-maximal inhibitory concentration (IC50) against Acetylcholinesterase [1] is 48.1 µM; on Cholinesterase [2], 0.38 µM. Also, the Ratio IC50 in assay [3] was found to be 126.

As for `O=C1Nc2ccccc2/C1=C\c1cc[n+](Cc2ccccc2Cl)cc1`, the half-maximal inhibitory concentration (IC50) is 0.0004 µM on Acetylcholinesterase [4] and 1370 µM at Cholinesterase [5]. For the same compound, the Ratio IC50 in assay [6] amounted to 3110.

In the case of `Fc1ccc(C[n+]2ccc(Cn3c4c(c5ccccc53)CCCC4)cc2)cc1`, the IC50 is 32.8 µM against Acetylcholinesterase [1] and 0.73 µM against Cholinesterase [2]. Also, the Ratio IC50 in assay [3] amounted to 44.9.

Regarding `Clc1ccccc1C[n+]1cccc(Cn2c3c(c4ccccc42)CCCC3)c1`, the IC50 against Acetylcholinesterase [1] was found to be 36.1 µM; at Cholinesterase [2] it was 0.2 µM. In addition, the Ratio IC50 in assay [3] was 180.

Regarding `Cc1ccccc1C[n+]1cccc(Cn2c3c(c4ccccc42)CCCC3)c1`, the IC50 on Acetylcholinesterase [1] worked out at 47 µM; against Cholinesterase [2], 0.38 µM. Further, the Ratio IC50 in assay [3] amounted to 124.

For the compound `Cc1cccc(C[n+]2ccc(Cn3c4c(c5ccccc53)CCCC4)cc2)c1`, the IC50 on Acetylcholinesterase [1] is 5.1 µM; at Cholinesterase [2], 0.24 µM. In addition, in assay [3], the Ratio IC50 was found to be 21.2.

For `O=C(NCc1cc[n+](Cc2cccc(F)c2)cc1)c1cc2ccccc2oc1=O`, the Ratio IC50 in [6] was found to be 0.83. In addition, the IC50 against Acetylcholinesterase [7] was determined as 10.1 µM; against Cholinesterase [8], 12.2 µM.

For the compound `O=C1CCC(=O)N1Cc1cc[n+](Cc2cccc(F)c2)cc1`, in assay [3], the Ratio IC50 amounted to 6.34. In addition, the IC50 was 7.19 µM against Acetylcholinesterase [9] and 45.6 µM against Cholinesterase [10].

On to `Clc1ccccc1C[n+]1ccc(Cn2c3c(c4ccccc42)CCCC3)cc1`, for which the IC50 against Acetylcholinesterase [1] is 6.5 µM; against Cholinesterase [2] it was 0.29 µM. For the same compound, the Ratio IC50 in assay [3] was 22.4.

Turning to `O=C1c2ccccc2C(=O)N1Cc1cc[n+](Cc2ccccc2F)cc1`, the Ratio IC50 in assay [3] is 11.3. In addition, the values for the concentration for half-maximal inhibition (IC50) against Acetylcholinesterase [9] and at Cholinesterase [10] were 0.77 µM and 8.71 µM, respectively.

With `Fc1ccccc1C[n+]1cccc(Cn2c3c(c4ccccc42)CCCC3)c1`, the half-maximal inhibitory concentration (IC50) against Acetylcholinesterase [1] is 67.7 µM; on Cholinesterase [2], 0.51 µM. Also, the Ratio IC50 in assay [3] stood at 133.

As for `Cc1ccccc1C[n+]1ccc(Cn2c3c(c4ccccc42)CCCC3)cc1`, the IC50 was determined as 8.4 µM on Acetylcholinesterase [1] and 0.4 µM on Cholinesterase [2]. For the same compound, the Ratio IC50 in assay [3] turned out to be 21.

On to `Cc1ccc(C[n+]2ccc(Cn3c4c(c5ccccc53)CCCC4)cc2)cc1`, for which the IC50 came to 14 µM at Acetylcholinesterase [1] and 0.7 µM on Cholinesterase [2]. Moreover, the Ratio IC50 in assay [3] amounted to 20.

For the compound `Fc1ccc(C[n+]2cccc(Cn3c4c(c5ccccc53)CCCC4)c2)cc1`, the half-maximal inhibitory concentration (IC50) against Acetylcholinesterase [1] is 71.7 µM; against Cholinesterase [2], 0.52 µM. For the same compound, the Ratio IC50 in assay [3] turned out to be 138.

With `Cc1cccc(C[n+]2cccc(Cn3c4c(c5ccccc53)CCCC4)c2)c1`, the figures for the 50% inhibitory concentration (IC50) at Acetylcholinesterase [1] and against Cholinesterase [2] were 16.8 µM and 0.11 µM, respectively. Moreover, the Ratio IC50 in [3] was 153.

On to `Clc1cccc(C[n+]2ccc(Cn3c4c(c5ccccc53)CCCC4)cc2)c1`, for which the IC50 at Acetylcholinesterase [1] turned out to be 4.8 µM; at Cholinesterase [2], 0.26 µM. Moreover, the Ratio IC50 in assay [3] is 18.5.

As for `Fc1cccc(C[n+]2cccc(Cn3c4c(c5ccccc53)CCCC4)c2)c1`, the IC50 against Acetylcholinesterase [1] amounted to 77.1 µM; on Cholinesterase [2], 0.56 µM. Further, the Ratio IC50 in assay [3] was 138.

On to `Cc1ccc(C[n+]2cccc(Cn3c4c(c5ccccc53)CCCC4)c2)cc1`, for which the concentration for half-maximal inhibition (IC50) at Acetylcholinesterase [1] stood at 15.9 µM; against Cholinesterase [2] it was 0.088 µM. The results for the Ratio IC50 in [3] and in [11] were 181 and 3.97, respectively. The Ki on Cholinesterase [12] was 0.09 µM. The viability at 10 µM in the assay with PC-12 is 65%. Also, the inhibition in assay [13] stood at 30%; in assay [14] it was 10%; in assay [15], 55.7%; in assay [16], 51.8%.

The record behind these values is ChEMBL document CHEMBL4152284, “Novel tetrahydrocarbazole benzyl pyridine hybrids as potent and selective butryl cholinesterase inhibitors with neuroprotective and β-secretase inhibition activities” (Eur J Med Chem, 2018).
